The text below walks through data of ChEMBL document CHEMBL3822377, “Locking PDK1 in DFG-out conformation through 2-oxo-indole containing molecules: Another tools to fight glioblastoma” (Eur J Med Chem, 2016).

For assay [1], the target named is CDK9/cyclin T1 (Homo sapiens) (UniProt O60563+P50750). The assay is described as follows: Inhibition of His-tagged full-length human recombinant CDK9/Cyclin T1 expressed in baculovirus system at 100 nM by adapta assay.
In assay [2] the target is Phosphatidylinositol 4,5-bisphosphate 3-kinase catalytic subunit gamma isoform (Homo sapiens) (UniProt P48736). The assay is described as follows: Inhibition of His-tagged full-length human PIK3CG expressed in baculovirus system at 100 nM by adapta assay.
Assay [3] deals with Tyrosine-protein kinase ABL1 (Homo sapiens) (UniProt P00519). The assay is described as follows: Inhibition of His-tagged full-length human ABL1 expressed in baculovirus system at 100 nM by Z-lyte assay.
In assay [4] the target is RAC-alpha serine/threonine-protein kinase (Homo sapiens) (UniProt P31749). The assay is described as follows: Inhibition of His-tagged full-length human AKT1 expressed in baculovirus system at 100 nM by Z-lyte assay.
For assay [5], the target named is Cyclin-dependent kinase 1/cyclin B1 (Homo sapiens) (UniProt P06493+P14635). The assay is described as follows: Inhibition of His-tagged full-length human CDK1/Cyclin B expressed in baculovirus system at 100 nM by Z-lyte assay.
Assay [6] deals with Cyclin-dependent kinase 5/CDK5 activator 1 (Homo sapiens) (UniProt Q00535+Q15078). The assay is described as follows: Inhibition of GST/His-tagged full-length human CDK5/p25 expressed in baculovirus system at 100 nM by Z-lyte assay.
Assay [7] addresses Serine/threonine-protein kinase Chk1 (Homo sapiens) (UniProt O14757). The assay is described as follows: Inhibition of His-tagged full-length human CHEK1 expressed in baculovirus system at 100 nM by Z-lyte assay.
Assay [8] addresses Casein kinase II subunit alpha' (Homo sapiens) (UniProt P19784). The assay is described as follows: Inhibition of GST-tagged full-length human recombinant CSNK2A2 expressed in baculovirus system at 100 nM by Z-lyte assay.
For assay [9], the target named is Tyrosine-protein kinase ITK/TSK (Homo sapiens) (UniProt Q08881). The assay is described as follows: Inhibition of cytosolic GST-tagged full-length recombinant human ITK expressed in baculovirus system at 100 nM by Z-lyte assay.
The target of assay [10] is Tyrosine-protein kinase Lck (Homo sapiens) (UniProt P06239). The assay is described as follows: Inhibition of His-tagged full-length human LCK expressed in baculovirus system at 100 nM by Z-lyte assay.
For assay [11], the target named is Dual specificity mitogen-activated protein kinase kinase 2 (Homo sapiens) (UniProt P36507). The assay is described as follows: Inhibition of His-tagged full-length recombinant human MAP2K2 expressed in baculovirus system at 100 nM by Z-lyte assay.
In assay [12] the target is Mitogen-activated protein kinase 1 (Homo sapiens) (UniProt P28482). The assay is described as follows: Inhibition of GST-tagged full-length human MAPK1 expressed in Escherichia coli at 100 nM by Z-lyte assay.
Assay [13] has as its target Protein kinase C delta type (Homo sapiens) (UniProt Q05655). The assay is described as follows: Inhibition of full-length recombinant human PRKCD expressed in baculovirus system at 100 nM by Z-lyte assay.
Assay [14] has as its target Ribosomal protein S6 kinase alpha-1 (Homo sapiens) (UniProt Q15418). The assay is described as follows: Inhibition of His-tagged full-length recombinant human RSK1 expressed in baculovirus system at 100 nM by Z-lyte assay.
Assay [15] addresses Proto-oncogene tyrosine-protein kinase Src (Homo sapiens) (UniProt P12931). The assay is described as follows: Inhibition of His-tagged full-length recombinant human SRC expressed in baculovirus system at 100 nM by Z-lyte assay.
The nature of assay [16]: (§1) Antiproliferative activity against human U87MG cells after 72 hrs by MTS assay. The class given is functional, cell-based, U-87MG ATCC. Particulars: U-87 MG.
In assay [17] the test system is U-87MG ATCC. Described as §1. The class given is functional, cell-based.
Assay [18] has as its system U-87 MG. The assay is described as follows: Induction of apoptosis in human U87MG cells assessed as live cells by measuring phosphatidylserine externalisation at 10 uM after 72 hrs by AnnexinV/FITC staining-based flow cytometry (reference value: 87.05%). The class given is functional, U-87MG ATCC.
The test system of assay [19] is U-87 MG. The assay is described as follows: Induction of apoptosis in human U87MG cells assessed as dead cells by measuring phosphatidylserine externalisation at 10 uM after 72 hrs in presence of 7-amino-actinomysin by AnnexinV/FITC staining-based flow cytometry (reference value: 2.1%). The class given is functional, U-87MG ATCC.
The test system of assay [20] is U-87MG ATCC. The assay is described as follows: Inhibition of AKT phosphorylation at Thr308 residue in human U87MG cells at 10 uM by ELISA relative to control. The class given is cell-based.
In assay [21] the target is T1, 3-phosphoinositide-dependent protein kinase 1 (Homo sapiens) (UniProt O15530).
T1 sequence (whole entry): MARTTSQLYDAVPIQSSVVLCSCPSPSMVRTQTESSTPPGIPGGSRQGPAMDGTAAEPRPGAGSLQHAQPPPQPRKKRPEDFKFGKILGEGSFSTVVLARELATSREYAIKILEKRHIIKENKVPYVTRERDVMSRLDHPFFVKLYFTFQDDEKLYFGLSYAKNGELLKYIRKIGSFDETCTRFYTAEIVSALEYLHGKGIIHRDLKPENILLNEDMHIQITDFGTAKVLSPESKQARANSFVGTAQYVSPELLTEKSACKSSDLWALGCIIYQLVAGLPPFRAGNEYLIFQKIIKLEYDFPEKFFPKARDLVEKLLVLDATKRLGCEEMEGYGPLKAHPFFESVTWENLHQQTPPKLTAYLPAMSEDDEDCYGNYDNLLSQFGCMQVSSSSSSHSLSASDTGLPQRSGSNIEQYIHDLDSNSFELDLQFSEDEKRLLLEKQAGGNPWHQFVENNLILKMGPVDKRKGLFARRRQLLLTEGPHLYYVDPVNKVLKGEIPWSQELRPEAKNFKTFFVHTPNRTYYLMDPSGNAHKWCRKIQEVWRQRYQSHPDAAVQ
The assay is described as follows: Inhibition of PDK1 in human GSC cells assessed as reduction in AKT phosphorylation at Thr308 residue at 10 uM by ELISA relative to control. The format is cell-based. The note with it: TDE = time-dependent effect.

Assay [22] concerns the target T1, 3-phosphoinositide-dependent protein kinase 1 (Homo sapiens). The assay is described as follows: Inhibition of PDK1 in human GSC cells assessed as reduction in AKT phosphorylation at Thr308 residue at 10 uM measured at 120 mins by ELISA relative to control. The class given is cell-based.

Molecules are shown by their SMILES. pIC50: −log10 of the molar value.

Chain of Proto-oncogene tyrosine-protein kinase Src (Homo sapiens) (P12931 2-536 limits assumed): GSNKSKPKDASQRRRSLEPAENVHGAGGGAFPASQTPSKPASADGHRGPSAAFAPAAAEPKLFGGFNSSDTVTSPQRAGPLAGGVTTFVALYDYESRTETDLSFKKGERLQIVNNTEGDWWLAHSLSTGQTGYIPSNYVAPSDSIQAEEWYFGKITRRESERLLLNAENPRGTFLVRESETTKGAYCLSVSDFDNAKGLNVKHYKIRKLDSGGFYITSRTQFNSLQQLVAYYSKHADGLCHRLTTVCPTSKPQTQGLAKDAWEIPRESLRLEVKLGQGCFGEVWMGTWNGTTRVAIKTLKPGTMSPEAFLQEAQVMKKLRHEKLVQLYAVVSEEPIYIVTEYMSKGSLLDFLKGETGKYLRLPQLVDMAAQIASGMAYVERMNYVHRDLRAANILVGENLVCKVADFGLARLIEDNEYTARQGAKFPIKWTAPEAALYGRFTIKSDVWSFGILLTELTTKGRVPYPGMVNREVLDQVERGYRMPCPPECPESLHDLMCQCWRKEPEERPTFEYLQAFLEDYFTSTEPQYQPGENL
Chain of Tyrosine-protein kinase Lck (Homo sapiens) (P06239 2-509 limits assumed): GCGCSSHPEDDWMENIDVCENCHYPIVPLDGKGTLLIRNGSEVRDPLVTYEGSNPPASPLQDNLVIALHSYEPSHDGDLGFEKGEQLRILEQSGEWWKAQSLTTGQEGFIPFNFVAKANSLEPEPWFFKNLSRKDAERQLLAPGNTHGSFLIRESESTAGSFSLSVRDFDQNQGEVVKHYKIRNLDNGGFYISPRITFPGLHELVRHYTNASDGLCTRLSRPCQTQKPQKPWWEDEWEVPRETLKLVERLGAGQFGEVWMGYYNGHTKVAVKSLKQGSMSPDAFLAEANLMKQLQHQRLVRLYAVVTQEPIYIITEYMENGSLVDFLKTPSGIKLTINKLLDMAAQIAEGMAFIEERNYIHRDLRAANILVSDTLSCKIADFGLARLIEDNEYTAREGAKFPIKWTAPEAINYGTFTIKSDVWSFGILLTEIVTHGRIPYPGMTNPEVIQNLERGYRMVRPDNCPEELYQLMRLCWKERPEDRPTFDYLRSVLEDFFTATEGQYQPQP
Chain of Cyclin-dependent kinase 5/CDK5 activator 1 (Homo sapiens) (Q00535 whole entry): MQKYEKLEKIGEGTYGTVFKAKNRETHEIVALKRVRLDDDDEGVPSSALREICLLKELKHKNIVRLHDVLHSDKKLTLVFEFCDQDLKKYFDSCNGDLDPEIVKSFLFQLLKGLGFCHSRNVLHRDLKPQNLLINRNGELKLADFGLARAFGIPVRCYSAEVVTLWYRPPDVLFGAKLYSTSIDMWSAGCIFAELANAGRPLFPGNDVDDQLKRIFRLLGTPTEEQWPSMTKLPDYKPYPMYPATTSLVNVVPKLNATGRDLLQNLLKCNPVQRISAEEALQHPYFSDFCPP
Chain of Cyclin-dependent kinase 5/CDK5 activator 1 (Homo sapiens) (Q15078 99-307 partner limits assumed): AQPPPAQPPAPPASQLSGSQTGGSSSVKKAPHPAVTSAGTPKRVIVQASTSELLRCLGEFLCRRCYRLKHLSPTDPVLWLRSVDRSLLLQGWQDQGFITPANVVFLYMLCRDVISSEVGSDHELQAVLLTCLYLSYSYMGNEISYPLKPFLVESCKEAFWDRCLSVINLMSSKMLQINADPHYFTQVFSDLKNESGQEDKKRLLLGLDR
Chain of Protein kinase C delta type (Homo sapiens) (Q05655 whole entry, looked up): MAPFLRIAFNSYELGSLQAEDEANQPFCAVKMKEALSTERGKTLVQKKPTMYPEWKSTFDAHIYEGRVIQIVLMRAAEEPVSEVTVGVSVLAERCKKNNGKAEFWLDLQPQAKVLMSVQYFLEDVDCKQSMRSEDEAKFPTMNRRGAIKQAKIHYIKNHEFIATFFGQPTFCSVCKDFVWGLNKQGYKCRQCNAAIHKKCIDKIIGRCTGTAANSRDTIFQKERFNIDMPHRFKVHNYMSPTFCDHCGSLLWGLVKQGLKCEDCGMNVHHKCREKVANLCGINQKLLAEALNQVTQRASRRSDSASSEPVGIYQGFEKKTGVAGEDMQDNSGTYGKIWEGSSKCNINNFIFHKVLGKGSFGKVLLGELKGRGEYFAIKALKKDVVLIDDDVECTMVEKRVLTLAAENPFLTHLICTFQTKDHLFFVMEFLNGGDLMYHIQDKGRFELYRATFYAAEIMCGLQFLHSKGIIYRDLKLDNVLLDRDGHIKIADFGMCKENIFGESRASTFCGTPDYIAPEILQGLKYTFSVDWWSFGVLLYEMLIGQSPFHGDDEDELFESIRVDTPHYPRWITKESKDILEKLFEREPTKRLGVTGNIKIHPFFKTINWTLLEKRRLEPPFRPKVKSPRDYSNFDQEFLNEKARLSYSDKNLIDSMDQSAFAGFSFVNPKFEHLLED
Chain of RAC-alpha serine/threonine-protein kinase (Homo sapiens) (P31749 whole entry): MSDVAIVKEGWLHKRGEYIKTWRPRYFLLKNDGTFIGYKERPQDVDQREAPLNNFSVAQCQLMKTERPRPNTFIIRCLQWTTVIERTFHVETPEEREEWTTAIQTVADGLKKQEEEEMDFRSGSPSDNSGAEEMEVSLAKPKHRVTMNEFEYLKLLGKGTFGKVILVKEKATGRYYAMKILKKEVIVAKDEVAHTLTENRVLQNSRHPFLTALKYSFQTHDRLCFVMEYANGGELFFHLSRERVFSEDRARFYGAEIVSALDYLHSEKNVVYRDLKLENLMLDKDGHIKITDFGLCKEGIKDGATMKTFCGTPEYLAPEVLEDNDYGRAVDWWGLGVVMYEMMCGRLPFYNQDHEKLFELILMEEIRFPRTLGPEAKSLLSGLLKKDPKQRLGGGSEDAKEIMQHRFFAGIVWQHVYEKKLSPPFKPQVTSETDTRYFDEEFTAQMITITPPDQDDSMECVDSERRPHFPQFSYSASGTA
Chain of Tyrosine-protein kinase ABL1 (Homo sapiens) (P00519 whole entry): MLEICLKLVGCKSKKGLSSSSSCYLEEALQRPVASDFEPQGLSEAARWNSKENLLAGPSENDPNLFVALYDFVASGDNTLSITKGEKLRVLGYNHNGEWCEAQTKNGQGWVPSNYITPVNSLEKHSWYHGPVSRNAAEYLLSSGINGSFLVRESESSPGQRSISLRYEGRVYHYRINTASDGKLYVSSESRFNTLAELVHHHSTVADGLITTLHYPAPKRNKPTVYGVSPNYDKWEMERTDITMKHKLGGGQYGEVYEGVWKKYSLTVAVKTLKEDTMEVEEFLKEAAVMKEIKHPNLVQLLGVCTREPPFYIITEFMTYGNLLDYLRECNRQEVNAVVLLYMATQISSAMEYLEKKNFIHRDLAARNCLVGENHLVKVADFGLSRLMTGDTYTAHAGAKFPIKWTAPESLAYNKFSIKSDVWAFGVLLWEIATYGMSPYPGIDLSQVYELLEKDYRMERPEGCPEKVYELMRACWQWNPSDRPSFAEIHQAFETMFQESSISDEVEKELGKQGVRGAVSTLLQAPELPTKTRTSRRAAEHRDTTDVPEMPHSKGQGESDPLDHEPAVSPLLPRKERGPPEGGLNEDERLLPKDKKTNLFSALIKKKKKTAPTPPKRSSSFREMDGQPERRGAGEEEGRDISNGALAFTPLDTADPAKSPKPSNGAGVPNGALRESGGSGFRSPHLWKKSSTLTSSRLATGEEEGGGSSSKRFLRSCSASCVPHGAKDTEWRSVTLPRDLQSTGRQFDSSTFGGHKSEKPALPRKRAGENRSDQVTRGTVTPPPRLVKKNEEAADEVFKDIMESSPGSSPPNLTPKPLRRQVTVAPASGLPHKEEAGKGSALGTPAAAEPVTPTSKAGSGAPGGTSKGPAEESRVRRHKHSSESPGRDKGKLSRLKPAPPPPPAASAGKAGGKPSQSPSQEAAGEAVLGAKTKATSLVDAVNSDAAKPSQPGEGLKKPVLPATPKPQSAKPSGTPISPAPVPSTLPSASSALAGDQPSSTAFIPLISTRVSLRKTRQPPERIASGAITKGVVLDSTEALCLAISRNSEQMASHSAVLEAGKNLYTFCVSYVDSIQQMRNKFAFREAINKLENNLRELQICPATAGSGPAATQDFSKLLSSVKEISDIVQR
Chain of Dual specificity mitogen-activated protein kinase kinase 2 (Homo sapiens) (P36507 whole entry): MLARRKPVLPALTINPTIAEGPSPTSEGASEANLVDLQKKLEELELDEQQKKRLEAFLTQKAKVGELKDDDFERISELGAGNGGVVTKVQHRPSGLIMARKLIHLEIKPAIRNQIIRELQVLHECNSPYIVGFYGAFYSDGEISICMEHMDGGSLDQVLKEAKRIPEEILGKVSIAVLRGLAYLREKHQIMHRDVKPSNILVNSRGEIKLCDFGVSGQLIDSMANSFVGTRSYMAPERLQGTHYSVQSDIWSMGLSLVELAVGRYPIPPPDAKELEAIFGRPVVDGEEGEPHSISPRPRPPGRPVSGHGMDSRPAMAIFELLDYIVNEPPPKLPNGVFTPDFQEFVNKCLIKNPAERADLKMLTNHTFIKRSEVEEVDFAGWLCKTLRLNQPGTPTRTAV
Chain of Tyrosine-protein kinase ITK/TSK (Homo sapiens) (Q08881 whole entry): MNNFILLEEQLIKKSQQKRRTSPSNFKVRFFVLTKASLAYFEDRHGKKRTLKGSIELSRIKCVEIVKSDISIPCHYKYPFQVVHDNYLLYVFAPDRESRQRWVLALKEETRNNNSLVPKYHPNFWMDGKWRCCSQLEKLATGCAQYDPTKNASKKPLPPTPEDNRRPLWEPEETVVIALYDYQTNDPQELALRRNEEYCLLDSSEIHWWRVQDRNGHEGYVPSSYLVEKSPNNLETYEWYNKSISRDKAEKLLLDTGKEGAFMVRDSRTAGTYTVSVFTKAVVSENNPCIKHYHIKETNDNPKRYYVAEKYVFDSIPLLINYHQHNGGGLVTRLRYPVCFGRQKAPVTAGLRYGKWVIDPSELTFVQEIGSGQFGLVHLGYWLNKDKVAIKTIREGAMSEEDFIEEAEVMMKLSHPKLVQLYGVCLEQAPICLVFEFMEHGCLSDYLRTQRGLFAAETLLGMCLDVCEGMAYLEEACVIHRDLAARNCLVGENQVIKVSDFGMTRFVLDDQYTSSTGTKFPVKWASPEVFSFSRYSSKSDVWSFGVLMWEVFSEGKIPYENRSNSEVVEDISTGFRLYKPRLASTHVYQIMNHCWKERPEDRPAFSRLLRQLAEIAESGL

On to `O=C(CNC(=O)c1cccn(Cc2ccc(F)c(F)c2)c1=O)Nc1ccc2c(c1)/C(=C/c1cnc[nH]1)C(=O)N2`, for which the inhibition is 6% in assay [1]; 2% in [2]; 14% in assay [3]; -8% in assay [4]; 6% in [5]; -8% in assay [6]. The inhibition is 6% in assay [7]; 3% in assay [8]; 14% in [9]; 9% in [10]; 9% in assay [11]; 6% in assay [12]. The inhibition in assay [13] is -7%; in assay [14] it was 2%; in [15] it was 7%; in assay [17], “Dose-dependent effect”; in assay [20], “Dose-dependent effect”; in [21] it was “tde”. In addition, the inhibition in assay [22] came out at 80.4%. The compound further had a pIC50 in assay [16] of 6.35. Further, the Activity was found to be 76.41% in [18] and 0.64% in assay [19].
